Measurements reported in patent US20220153751A1, “BIFUNCTIONAL COMPOUNDS” (BioTheryX, Inc., priority 2018, published 2022).

How the values were obtained:
Assay type in all cases: cell-based
CDK16 = molecular target: T1, CDK16 (Homo sapiens, UniProt Q00536); assay: CDK16 degradation assay (Western blot, MV-4-11 cells); conditions: 6-8 h; for Dmax at 0.1 µM: MV4-11, 0.1 μM; for Dmax at 1 µM: MV4-11, 1 μM
T1 construct: Whole cell extracts were prepared using RIPA buffer; endogenous in cells; host or cells: MV-4-11
T1 sequence (Q00536 whole entry): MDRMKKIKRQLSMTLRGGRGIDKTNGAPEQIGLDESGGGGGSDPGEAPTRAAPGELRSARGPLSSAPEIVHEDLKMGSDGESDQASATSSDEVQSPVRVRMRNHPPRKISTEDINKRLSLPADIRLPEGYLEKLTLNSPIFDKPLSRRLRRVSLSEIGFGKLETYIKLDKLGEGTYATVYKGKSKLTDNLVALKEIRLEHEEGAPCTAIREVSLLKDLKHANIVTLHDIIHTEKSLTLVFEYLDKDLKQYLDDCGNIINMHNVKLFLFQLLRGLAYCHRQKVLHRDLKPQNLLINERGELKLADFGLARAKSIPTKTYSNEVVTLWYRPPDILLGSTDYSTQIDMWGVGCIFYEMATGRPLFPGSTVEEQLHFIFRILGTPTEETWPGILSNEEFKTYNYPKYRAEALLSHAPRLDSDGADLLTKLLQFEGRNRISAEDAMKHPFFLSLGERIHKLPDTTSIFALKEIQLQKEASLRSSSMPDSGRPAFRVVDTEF
Experimental: (§1) MV-4-11 cells were grown in RPMI 1640 media supplemented with 10% fetal bovine serum, streptomycin and penicillin.
(§2) Cells were cultured at approximately 10^6 cells per mL and incubated in DMSO or the indicated compound for 6-8 h. Whole cell extracts were prepared using RIPA buffer according to manufacturer's protocol (Pierce). Briefly, 3×10^6 cells were washed once in PBS, the cell pellets were resuspended in RIPA buffer and allowed to incubate for 15 minutes on ice. Cells debris was removed by centrifugation and the cleared whole cell lysates were transferred to new tubes for further analysis.
(§3) For Western blot analysis, whole cell protein extracts were separated on 4-12% SDS-polyacrylamide gels, transferred to nitrocellulose and probed with the indicated primary antibodies. Membranes were subsequently washed and probed with the appropriate IRDye secondary antibodies (LI-COR). The signal was detected using the Odyssey Imaging System (LI-COR).
(§4) The following antibodies were used in these studies: Anti-eRF3/GSPT1: Abcam, ab126090 (Cambridge, Mass.); Anti-Ikaros: Abcam, ab191394 (Cambridge, Mass.); Anti-CK1α: Abcam, ab108296 (Cambridge, Mass.); Anti-CDK9: Santa Cruz Biotechnology, sc13130 (Dallas, Tex.); Anti-CDK16: Millipore Sigma, HPA001366 (St. Louis, Mo.); 3-actin (8H10comD10) mouse monoclonal antibody: Cell Signaling Technology, #3700 (Danvers, Mass.); IRDye 680RD Goat anti-rabbit antibody: LI-COR, 926-68071 (Lincoln, Nebr.); IRDye 800CW Goat anti-mouse antibody: LI-COR, 926-32210 (Lincoln, Nebr.).
(§5) CDK9 activities are shown in Table 4 at two different concentrations. CDK16 activities are shown in Table 5 at two different concentrations. In each of Tables 1-5, the % degradation values are reported as “A”, “B”, “C”, or “D”. “A” represents a % degradation value of less than 25% (value <25%). “B” represents a % degradation value of equal to or more than 25% and less than 50% (25%≤value<50%). “C” represents a % degradation value of equal to or more than 50% and less than 75% (50%≤value<75%). “D” represents a % degradation value of equal to or more than 75% (value ≥75%).

CDK9 = molecular target: T2, CDK9 (Homo sapiens, UniProt P50750); assay: CDK9 degradation assay (Western blot, MV-4-11 cells); conditions: 6-8 h; for Dmax at 0.1 µM: MV4-11, 0.1 μM; for Dmax at 1 µM: MV4-11, 1 μM
T2 construct: Whole cell extracts were prepared using RIPA buffer; endogenous in cells; host or cells: MV-4-11
T2 sequence (P50750 whole entry): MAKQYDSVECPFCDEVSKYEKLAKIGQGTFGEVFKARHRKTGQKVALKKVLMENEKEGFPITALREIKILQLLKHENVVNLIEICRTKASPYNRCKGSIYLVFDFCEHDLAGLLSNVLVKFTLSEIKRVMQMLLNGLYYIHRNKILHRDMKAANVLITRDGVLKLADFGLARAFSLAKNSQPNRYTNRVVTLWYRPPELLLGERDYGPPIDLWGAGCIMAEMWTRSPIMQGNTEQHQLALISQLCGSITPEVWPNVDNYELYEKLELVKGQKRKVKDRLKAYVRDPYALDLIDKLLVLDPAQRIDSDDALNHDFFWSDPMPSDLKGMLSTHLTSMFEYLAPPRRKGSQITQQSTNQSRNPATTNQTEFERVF
Experimental: as §1, §2, §3, §4, §5

MOLM-13 cells = assay: MOLM-13 cell viability assay (CellTiter-Glo); conditions: Homo sapiens, MOLM-13, 72 h, 3 days, read-out: MOLM-13 Cell Viability % DMSO at 1 μM
Experimental: MOLM-13 cells were cultured in RPMI 1640 media supplemented with 10% fetal bovine serum, streptomycin and penicillin, and were plated in walled 96-well plates at 2500 cells/well. Cells were incubated in DMSO (control) or the indicated compound for 3 days at 37° C. and 5% CO2. Following the incubation period, 100 μL of CellTiterGlow (CTG) reagent (CellTiter-Glo® Luminescent Cell Viability Assay, Promega (Madison, Wis.)) was added to each well. Following a 10 minutes incubation with shaking, luminescence was measured using the EnVision Multimode plate reader.
The MOLM-13 cell viability values as % DMSO are reported as “A”, “B”, “C”, or “D”. “A” represents a % viability value of less than 50% (value <50%). “B” represents a % viability value of equal to or more than 50% and less than 70% (50%≤value<70%). “C” represents a % viability value of equal to or more than 70% and less than 90% (70%≤value<90%). “D” represents a % viability value of equal or more than 90% (value ≥90%).

IKAROS = molecular target: T3, IKAROS (Homo sapiens, UniProt Q13422+Q96SW2); assay: IKAROS degradation assay (Western blot, MV-4-11 cells); conditions: MV4-11, 6-8 h
T3 construct: endogenous in cells; host or cells: MV-4-11
T3 sequence (Q13422 whole entry): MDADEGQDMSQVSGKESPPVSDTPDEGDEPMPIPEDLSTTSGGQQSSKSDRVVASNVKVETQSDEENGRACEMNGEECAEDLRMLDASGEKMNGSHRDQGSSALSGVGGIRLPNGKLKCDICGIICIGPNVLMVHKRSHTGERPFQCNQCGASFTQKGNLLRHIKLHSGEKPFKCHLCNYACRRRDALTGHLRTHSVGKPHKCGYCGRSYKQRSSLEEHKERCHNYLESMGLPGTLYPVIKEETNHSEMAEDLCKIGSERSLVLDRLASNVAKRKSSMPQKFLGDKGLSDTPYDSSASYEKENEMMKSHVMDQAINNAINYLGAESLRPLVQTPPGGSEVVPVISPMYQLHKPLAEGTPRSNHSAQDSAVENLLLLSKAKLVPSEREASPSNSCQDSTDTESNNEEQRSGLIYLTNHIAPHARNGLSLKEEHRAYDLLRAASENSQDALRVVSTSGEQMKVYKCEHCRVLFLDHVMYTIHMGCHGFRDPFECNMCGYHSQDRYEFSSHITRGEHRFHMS
T3 sequence (Q96SW2 whole entry): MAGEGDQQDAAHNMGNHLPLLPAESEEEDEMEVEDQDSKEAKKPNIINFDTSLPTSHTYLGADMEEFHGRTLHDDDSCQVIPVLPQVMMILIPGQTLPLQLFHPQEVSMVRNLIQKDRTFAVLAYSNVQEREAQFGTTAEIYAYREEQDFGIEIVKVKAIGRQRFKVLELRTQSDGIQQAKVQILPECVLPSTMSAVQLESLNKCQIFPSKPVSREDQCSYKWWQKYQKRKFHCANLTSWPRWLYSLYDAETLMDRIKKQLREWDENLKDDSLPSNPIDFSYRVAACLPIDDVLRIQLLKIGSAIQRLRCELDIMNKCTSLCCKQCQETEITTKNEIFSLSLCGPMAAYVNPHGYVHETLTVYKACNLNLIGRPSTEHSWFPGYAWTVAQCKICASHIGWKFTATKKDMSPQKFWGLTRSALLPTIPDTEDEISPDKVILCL
T3 sequence (Q16531 whole entry partner): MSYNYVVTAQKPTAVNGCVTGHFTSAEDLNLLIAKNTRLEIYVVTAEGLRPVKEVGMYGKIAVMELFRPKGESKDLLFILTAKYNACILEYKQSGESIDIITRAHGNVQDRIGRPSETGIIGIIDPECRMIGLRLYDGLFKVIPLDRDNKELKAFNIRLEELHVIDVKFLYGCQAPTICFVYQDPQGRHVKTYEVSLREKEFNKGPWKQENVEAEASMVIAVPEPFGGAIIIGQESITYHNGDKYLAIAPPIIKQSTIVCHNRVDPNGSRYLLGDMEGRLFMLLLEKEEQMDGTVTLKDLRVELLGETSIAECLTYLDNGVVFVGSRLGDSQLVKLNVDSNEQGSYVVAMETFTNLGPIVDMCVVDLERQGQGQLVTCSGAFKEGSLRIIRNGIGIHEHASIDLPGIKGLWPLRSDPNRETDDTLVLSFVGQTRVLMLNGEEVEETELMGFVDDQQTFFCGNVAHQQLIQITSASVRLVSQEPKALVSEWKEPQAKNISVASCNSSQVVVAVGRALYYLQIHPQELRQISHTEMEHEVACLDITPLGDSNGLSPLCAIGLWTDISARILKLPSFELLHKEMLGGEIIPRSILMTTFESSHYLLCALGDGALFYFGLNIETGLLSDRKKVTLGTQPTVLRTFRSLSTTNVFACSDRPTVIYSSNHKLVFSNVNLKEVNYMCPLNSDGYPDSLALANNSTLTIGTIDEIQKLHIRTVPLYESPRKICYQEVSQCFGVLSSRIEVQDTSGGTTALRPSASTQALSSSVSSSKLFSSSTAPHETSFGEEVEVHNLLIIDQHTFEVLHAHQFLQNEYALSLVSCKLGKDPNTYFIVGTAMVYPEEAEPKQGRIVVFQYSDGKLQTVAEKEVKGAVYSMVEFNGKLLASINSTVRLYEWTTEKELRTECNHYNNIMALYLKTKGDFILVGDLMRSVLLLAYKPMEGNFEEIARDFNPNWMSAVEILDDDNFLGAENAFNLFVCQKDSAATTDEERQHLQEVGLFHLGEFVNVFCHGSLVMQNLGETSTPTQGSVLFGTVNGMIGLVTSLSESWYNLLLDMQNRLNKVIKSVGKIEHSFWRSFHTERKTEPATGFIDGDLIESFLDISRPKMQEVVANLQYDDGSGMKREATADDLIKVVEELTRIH
Experimental: as §1, §2, §3, §4, §5

GSPT1 = molecular target: T4, GSPT1 (Homo sapiens, UniProt P15170+Q96SW2); assay: GSPT1 degradation assay (Western blot, MV-4-11 cells); conditions: MV4-11, 6-8 h
T4 construct: Whole cell extracts were prepared using RIPA buffer; endogenous in cells; host or cells: MV-4-11
T4 sequence (P15170 whole entry): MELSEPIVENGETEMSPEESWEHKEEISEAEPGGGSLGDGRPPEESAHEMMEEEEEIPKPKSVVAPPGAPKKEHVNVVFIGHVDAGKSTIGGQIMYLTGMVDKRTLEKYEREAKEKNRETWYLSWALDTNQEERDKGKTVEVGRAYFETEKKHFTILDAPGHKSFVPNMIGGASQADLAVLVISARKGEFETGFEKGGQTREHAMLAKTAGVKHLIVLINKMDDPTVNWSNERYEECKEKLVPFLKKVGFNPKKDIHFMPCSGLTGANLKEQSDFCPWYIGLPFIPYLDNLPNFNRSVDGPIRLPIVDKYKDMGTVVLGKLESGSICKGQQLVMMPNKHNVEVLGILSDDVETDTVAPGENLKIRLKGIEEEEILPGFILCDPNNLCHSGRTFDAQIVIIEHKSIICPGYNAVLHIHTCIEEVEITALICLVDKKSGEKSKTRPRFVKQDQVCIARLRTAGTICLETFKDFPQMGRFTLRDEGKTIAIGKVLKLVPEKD
T4 sequence (Q96SW2 whole entry): as the sequence (Q96SW2 whole entry) above
T4 sequence (Q16531 whole entry partner): as the sequence (Q16531 whole entry partner) above
Experimental: as §1, §2, §3, §4, §5

IL-1β = IL-1β inhibition assay, LPS-induced PBMCs / CD14+ monocytes (Meso Scale); conditions: 1 h pretreatment, 100 ng/mL LPS 18-24 h
Experimental: (§6) Either frozen primary blood mononuclear cells (PBMCs) or frozen CD14+ mobilized peripheral blood monocytes were purchased from AllCells (PB003F, Normal Peripheral Blood MNC (Alameda, Calif.)). Cells were quick thawed, washed 1-time with RPMI-1640 (10% FBS/1% Pen-Strep) and plated in 96 well plates at 200,000 cells per well. Cells were pretreated with DMSO only or with the indicated compound for 1 h and then induced with 100 ng/mL lipopolysaccharide (LPS) for 18-24 h. The supernatant was analyzed for IL-1β, IL-6, and TNFα, using Meso Scale assay according to manufacturer's protocol. The negative control wells were treated with DMSO.
(§7) In Table 6, the % inhibition values are reported as “A”, “B”, “C”, or “D”. “A” represents a % inhibition value of less than 50% (value <50%). “B” represents a % inhibition value of equal to or more than 50% and less than 70% (50%≤value<70%). “C” represents a % inhibition value of equal to or more than 70% and less than 90% (70%≤value<90%). “D” represents a % inhibition value of equal or more than 90% (value ≥90%). In Table 7, the fold-change values are reported as “A”, “B”, “C”, or “D”. “A” represents a fold-change value of equal to or less than 0.1 (value ≤0.1). “B” represents a fold-change value of more than 0.1 and equal to or less than 0.5 (0.1<value≤0.5). “C” represents a fold-change value of more than 0.5 and equal to or less than 1 (0.5<value≤1). “D” represents a fold-change value of more than 1 (value >1).

IL-6 = IL-6 inhibition assay, LPS-induced PBMCs / CD14+ monocytes (Meso Scale); conditions: 1 h pretreatment, 100 ng/mL LPS 18-24 h
Experimental: as §6, §7

TNF-α = TNF-α inhibition assay, LPS-induced PBMCs / CD14+ monocytes (Meso Scale); conditions: 1 h pretreatment, 100 ng/mL LPS 18-24 h
Experimental: as §6, §7

SMILES | Dmax at 0.1 µM (CDK16) | Dmax at 1 µM (CDK16) | Dmax at 0.1 µM (CDK9) | Dmax at 1 µM (CDK9) | viability at 1 µM (MOLM-13 cells) | Dmax at 1 µM (IKAROS) | Dmax at 1 µM (GSPT1) | inhibition at 1 µM (IL-1β) | inhibition at 1 µM (IL-6) | inhibition at 1 µM (TNF-α)
CC(C)(C)c1cnc(CSc2cnc(NC(=O)C3CCN(CC(=O)NCCCCNCC(=O)NCc4cc5c(s4)C(=O)N(C4CCC(=O)NC4=O)C5)CC3)s2)o1 (centres unmarked) [Compound 14, N-(5-(((5-(tert-butyl)oxazol-2-yl)methyl)thio)thiazol-2-yl)-1-(2-((4-((2-(((5-(2,6-dioxopiperidin-3-yl)-6-oxo-5,6-dihydro-4H-thieno[2,3-c]pyrrol-2-yl)methyl)amino)-2-oxoethyl)amino)butyl)amino)-2-oxoethyl)piperidine-4-carboxamide] | < 25% | 25 to 50% | 25 to 50% | ≥ 75% | > 90% | < 25% | 25 to 50% | – | – | –
Cn1ncc(-c2nc(N[C@H]3CC[C@H](NCC(=O)NCCCCNCC(=O)NCc4cc5c(s4)C(=O)N(C4CCC(=O)NC4=O)C5)CC3)ncc2F)c1CC1CC1 (some centres unmarked) [Compound 29, 2-(((1r,4r)-4-((4-(5-(cyclopropylmethyl)-1-methyl-1H-pyrazol-4-yl)-5-fluoropyrimidin-2-yl)amino)cyclohexyl)amino)-N-(4-((2-(((5-(2,6-dioxopiperidin-3-yl)-6-oxo-5,6-dihydro-4H-thieno[2,3-c]pyrrol-2-yl)methyl)amino)-2-oxoethyl)amino)butyl)acetamide] | 25 to 50% | 50 to 75% | 25 to 50% | 50 to 75% | > 90% | 50 to 75% | < 25% | – | – | –
Cn1ncc(-c2nc(N[C@H]3CC[C@H](NCC(=O)NCCCCCNCC(=O)NCc4scc5c4CN(C4CCC(=O)NC4=O)C5=O)CC3)ncc2F)c1CC1CC1 (some centres unmarked) [Compound 32, 2-(((1r,4r)-4-((4-(5-(cyclopropylmethyl)-1-methyl-1H-pyrazol-4-yl)-5-fluoropyrimidin-2-yl)amino)cyclohexyl)amino)-N-(5-((2-(((5-(2,6-dioxopiperidin-3-yl)-4-oxo-5,6-dihydro-4H-thieno[3,4-c]pyrrol-1-yl)methyl)amino)-2-oxoethyl)amino)pentyl)acetamide] | 50 to 75% | ≥ 75% | 50 to 75% | ≥ 75% | > 90% | 50 to 75% | 25 to 50% | – | – | –
Cn1ncc(-c2nc(N[C@H]3CC[C@H](NCC(=O)NCCCCNCC(=O)NCc4scc5c4CN(C4CCC(=O)NC4=O)C5=O)CC3)ncc2Cl)c1CC1CC1 (some centres unmarked) [Compound 38, 2-(((1r,4r)-4-((5-chloro-4-(5-(cyclopropylmethyl)-1-methyl-1H-pyrazol-4-yl)pyrimidin-2-yl)amino)cyclohexyl)amino)-N-(4-((2-(((5-(2,6-dioxopiperidin-3-yl)-4-oxo-5,6-dihydro-4H-thieno[3,4-c]pyrrol-1-yl)methyl)amino)-2-oxoethyl)amino)butyl)acetamide] | 50 to 75% | ≥ 75% | 50 to 75% | ≥ 75% | > 90% | 25 to 50% | 50 to 75% | – | – | –
Cn1ncc(-c2nc(N[C@H]3CC[C@H](NCC(=O)NCCOCCOCCOCCNCC(=O)NCc4cc5c(s4)C(=O)N(C4CCC(=O)NC4=O)C5)CC3)ncc2Cl)c1CC1CC1 (some centres unmarked) [Compound 43, 14-(2-(((1r,4r)-4-((5-chloro-4-(5-(cyclopropylmethyl)-1-methyl-1H-pyrazol-4-yl)pyrimidin-2-yl)amino)cyclohexyl)amino)acetamido)-N-((5-(2,6-dioxopiperidin-3-yl)-6-oxo-5,6-dihydro-4H-thieno[2,3-c]pyrrol-2-yl)methyl)-6,9,12-trioxa-3-azatetradecanamide] | – | – | – | – | 50 to 70% | – | 50 to 75% | < 50% | < 50% | < 50%
Cn1ncc(-c2nc(N[C@H]3CC[C@H](NCC(=O)NCCOCCOCCOCCNc4cccc5c4C(=O)N(C4CCC(=O)NC4=O)C5=O)CC3)ncc2Cl)c1CC1CC1 (some centres unmarked) [Compound 49, 2-(((1r,4r)-4-((5-chloro-4-(5-(cyclopropylmethyl)-1-methyl-1H-pyrazol-4-yl)pyrimidin-2-yl)amino)cyclohexyl)amino)-N-(2-(2-(2-(2-((2-(2,6-dioxopiperidin-3-yl)-1,3-dioxoisoindolin-4-yl)amino)ethoxy)ethoxy)ethoxy)ethyl)acetamide] | – | – | – | – | > 90% | 50 to 75% | < 25% | – | – | –
Cn1ncc(-c2nc(N[C@H]3CC[C@H](NCCOCCOCCOCCNCc4cc5c(s4)C(=O)N(C4CCC(=O)NC4=O)C5)CC3)ncc2Cl)c1CC1CC1 (some centres unmarked) [Compound 66, 3-(2-(13-(((1r,4r)-4-((5-chloro-4-(5-(cyclopropylmethyl)-1-methyl-1H-pyrazol-4-yl)pyrimidin-2-yl)amino)cyclohexyl)amino)-5,8,11-trioxa-2-azatridecyl)-6-oxo-4,6-dihydro-5H-thieno[2,3-c]pyrrol-5-yl)piperidine-2,6-dione] | – | – | – | – | 50 to 70% | – | 50 to 75% | < 50% | < 50% | < 50%
Cn1ncc(-c2nc(N[C@H]3CC[C@H](NCCCCCCCNCc4ccc(OCc5scc6c5CN([C@H]5CCC(=O)NC5=O)C6=O)cc4)CC3)ncc2Cl)c1CC1CC1 [Compound 68, (S)-3-(1-((4-(((7-(((1r,4r)-4-((5-chloro-4-(5-(cyclopropylmethyl)-1-methyl-1H-pyrazol-4-yl)pyrimidin-2-yl)amino)cyclohexyl)amino)heptyl)amino)methyl)phenoxy)methyl)-4-oxo-4H-thieno[3,4-c]pyrrol-5(6H)-yl)piperidine-2,6-dione] | – | – | – | – | > 90% | ≥ 75% | ≥ 75% | – | – | –
